From patent publication US7695918B2 (priority 2002, dated 2010)
Like-named read-outs stand apart in the source and are kept apart here.

Key:
[1] = target: PrP^sc (Ovis aries, UniProt P23907); format: binding; conditions: 2000 μg streptomycin; PrP^sc from 920 μg sheep brain afflicted with trembling; from increase of apparent molecular weight
[2] = system: PrP^sc; format: binding, bovine
[3] = system: PrP^sc; conditions: precipitates, ESB bovine brain homogenate
[4] = system: PrP^sc
[5] = target: recPrP (recombinant protein prion) (Homo sapiens, UniProt P04156); conditions: recPrP 42 μM diluted with an equivalent volume of streptomycin 1 g/ml; dried on mica
[6] = target: protein prion (Homo sapiens, UniProt P04156); format: binding; conditions: LCR
[7] = system: protein prion; format: binding, human; conditions: 50 μg/ml final concentration streptomycin; LCR(+) at any proteinase K concentration, LCR(−) only without digestion

Sequence of PrP^sc (Ovis aries, UniProt P23907) (P23907 25-233 limits assumed): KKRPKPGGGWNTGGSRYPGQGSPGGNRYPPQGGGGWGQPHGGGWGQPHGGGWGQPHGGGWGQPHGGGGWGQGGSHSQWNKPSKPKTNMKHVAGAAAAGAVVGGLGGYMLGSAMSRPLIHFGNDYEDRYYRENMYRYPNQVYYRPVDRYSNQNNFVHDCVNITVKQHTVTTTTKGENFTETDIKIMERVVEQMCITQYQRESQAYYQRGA

[H]/N=C(/N)N[C@H]1[C@H](O)[C@@H](O)[C@H](O[C@@H]2O[C@@H](C)[C@](O)(C=O)[C@H]2O[C@@H]2O[C@@H](CO)[C@H](O)[C@@H](O)[C@@H]2NC)[C@@H](N/C(N)=N\[H])[C@@H]1O [streptomycin] was tested. Which “number of streptomycin molecules attached per band of PrP^sc” value [1] did it give?
Its value is 10 to 12 molecules of streptomycin per band of PrP^sc.

And the “precipitation of PrP^sc” value ([2]; 20 μl streptomycin at 1 g/ml, 100 μl bovine brain suspension after proteinase K, second hour at 37° C.)?
The value was “totally precipitated the PrP^sc”.

What about the “location of PrP^sc bands (supernatant or bottom)” value ([2]; brain sample diluted 1/25, proteinase K and streptomycin added simultaneously, one hour incubation) of the same molecule?
Its value is “in the bottom in the presence of any concentration of streptomycin”.

And the “dilution down to which PrP^sc is detectable” value ([3]; 5 μl streptomycin, without streptomycin the limit is 1/16)?
Its value is 1/128.

What about the “dilution down to which PrP^sc is detectable” value ([3]; 10 μl streptomycin, most diluted sample tested) of the same molecule?
Its value is 1/256.

And the “detection of PrP^sc compared with the reference technique” value [4]?
The value was “permits better detection of cases that are slightly positive”.

And the “surface organization of the film of the recPrP/streptomycin mixture” value [5]?
The value was “amorphous surface”.

What about the “apparent size of the protein prion band after streptomycin treatment” value ([6]; 0.1 g/ml streptomycin, no proteinase K digestion) of the same molecule?
The value was “approximately 50 kDa”.

What about the “binding of streptomycin to the protein prion” value ([6]; absence of digestion by proteinase K, streptomycin 0.1 and 0.2 g/ml) of the same molecule?
The value was “bonds well to the protein prion”.

And the “apparent molecular mass of the band observed after streptomycin treatment” value [7]?
Its value is “approximately 35 kDa”.
